Among the test systems are NCI/ADR-RES ovarian; LOX IMVI melanoma; K-562 leukemia; SR leukemia; TK-10 renal; HCC-2998 colon; SNB-19 CNS; OVCAR-4 ovarian; SK-MEL-2 melanoma; A549 NSCLC.
Common to all, as to experiment: NCI anticancer screen, dose series, 48 h

We go through eight compounds from PubChem BioAssay (NCI).

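96-well plates; 48 h exposure; 5 concentrations. Endpoints by linear interpolation between flanking doses. Not reached: highest tested concentration assigned. GI50 is the concentration that inhibits growth by half. At the TGI there is no net growth.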 Where only a bound is given, the exact number is not on record here.

In the case of `Nc1cc2ccncc2c2ccccc12`, the GI50 in the assay with NCI/ADR-RES ovarian was 8.7 µM; in the assay on LOX IMVI melanoma it was 8.68 µM; with K-562 leukemia, 13.5 µM; in the assay with SR leukemia it was 8.56 µM; in the assay on TK-10 renal it was 20.2 µM; in the assay with HCC-2998 colon, 14.2 µM. Besides, the GI50 in the assay on SNB-19 CNS was 19.5 µM; in the assay with OVCAR-4 ovarian, 20.2 µM; with SK-MEL-2 melanoma, 13.6 µM; in the assay on A549 NSCLC it was 18.9 µM. Moreover, the TGI was over 100 µM with NCI/ADR-RES ovarian; over 100 µM in the assay with LOX IMVI melanoma; 73 µM in the assay with K-562 leukemia; 47.9 µM in the assay on SR leukemia; 91.1 µM in the assay with TK-10 renal; 40.4 µM in the assay with HCC-2998 colon. Besides, the TGI in the assay with SNB-19 CNS is over 100 µM; in the assay on OVCAR-4 ovarian it was over 100 µM; in the assay with SK-MEL-2 melanoma, 30 µM; in the assay on A549 NSCLC, over 100 µM.
In the case of `CCN1CCN(c2nc(NNC(=O)c3cccc(OC)c3)nc(N3CCN(C(c4ccccc4)c4ccccc4)CC3)n2)CC1`, the GI50 in the assay with NCI/ADR-RES ovarian was 2.42 µM; in the assay on LOX IMVI melanoma, 1.62 µM; in the assay on K-562 leukemia, 2.79 µM; in the assay with SR leukemia, 0.926 µM; with TK-10 renal, 1.78 µM; with HCC-2998 colon it was 1.96 µM. Besides, the GI50 in the assay with SNB-19 CNS was 4.63 µM; with OVCAR-4 ovarian it was 2.06 µM; in the assay on SK-MEL-2 melanoma, 2.02 µM; in the assay on A549 NSCLC it was 3.05 µM. The TGI was 7.12 µM in the assay on NCI/ADR-RES ovarian; 2.97 µM with LOX IMVI melanoma; over 100 µM in the assay with K-562 leukemia; 3.81 µM in the assay with SR leukemia; 3.55 µM with TK-10 renal; 4.33 µM in the assay with HCC-2998 colon. Further, the TGI is 26.3 µM in the assay with SNB-19 CNS, 5.97 µM in the assay on OVCAR-4 ovarian, 4.05 µM in the assay on SK-MEL-2 melanoma and over 100 µM in the assay with A549 NSCLC.
As to `N#CSc1cc(-c2nc3ccccc3o2)ccc1N`, the GI50 with NCI/ADR-RES ovarian was 22.2 µM; with LOX IMVI melanoma it was 13.5 µM; in the assay on K-562 leukemia, 2.55 µM; in the assay on SR leukemia, 0.203 µM; with TK-10 renal it was 19.2 µM; in the assay on HCC-2998 colon it was 22.6 µM. Further, the GI50 in the assay with SNB-19 CNS is 59.7 µM; in the assay on OVCAR-4 ovarian, 30.5 µM; with SK-MEL-2 melanoma, 40.7 µM; with A549 NSCLC it was 2.42 µM. The TGI in the assay with NCI/ADR-RES ovarian is 87.5 µM; in the assay with LOX IMVI melanoma, 43.9 µM; in the assay on K-562 leukemia, over 89.3 µM; in the assay on SR leukemia it was over 100 µM; with TK-10 renal, 52.3 µM; with HCC-2998 colon it was over 100 µM. The TGI was over 100 µM with SNB-19 CNS, over 100 µM in the assay with OVCAR-4 ovarian, over 74.3 µM in the assay with SK-MEL-2 melanoma and over 53 µM in the assay on A549 NSCLC.
With `COc1ccc2c(c1)/C(=N/OC(C)=O)c1c-2c(Nc2ccc(/C(C)=N/OC(C)=O)cc2)nc2ccccc12`, the GI50 with NCI/ADR-RES ovarian is 33 µM; with LOX IMVI melanoma, 29.1 µM; in the assay with K-562 leukemia, 40.4 µM; with SR leukemia it was 87.6 µM; in the assay on TK-10 renal it was over 100 µM; in the assay with HCC-2998 colon it was 26 µM. For the same compound, the GI50 with SNB-19 CNS was over 100 µM; in the assay with OVCAR-4 ovarian, 20.8 µM; in the assay on SK-MEL-2 melanoma it was 83.1 µM; with A549 NSCLC, 59.6 µM. For the same compound, the TGI in the assay with NCI/ADR-RES ovarian was over 100 µM; in the assay on LOX IMVI melanoma, 63.5 µM; in the assay on K-562 leukemia it was over 100 µM; in the assay with SR leukemia, over 100 µM; with TK-10 renal, over 100 µM; with HCC-2998 colon, 59 µM. The TGI was over 100 µM with SNB-19 CNS, 45.1 µM in the assay on OVCAR-4 ovarian, over 100 µM in the assay on SK-MEL-2 melanoma and over 100 µM in the assay on A549 NSCLC.
Take `CCN(Cc1cccc(C)c1)c1ccc(CO)c(Cl)c1`: the GI50 with NCI/ADR-RES ovarian was 11.3 µM; in the assay on LOX IMVI melanoma, 13.2 µM; with K-562 leukemia, 3.98 µM; in the assay on SR leukemia, 21.6 µM; in the assay on TK-10 renal, 0.113 µM; in the assay on HCC-2998 colon, 12.1 µM. The GI50 was 15.8 µM with SNB-19 CNS, 0.618 µM with OVCAR-4 ovarian, 5.77 µM in the assay on SK-MEL-2 melanoma and 4.77 µM in the assay with A549 NSCLC. Further, the TGI in the assay with NCI/ADR-RES ovarian was 24.5 µM; in the assay with LOX IMVI melanoma, 26.6 µM; with K-562 leukemia, 44.6 µM; in the assay on SR leukemia, over 62 µM; with TK-10 renal it was 0.36 µM; in the assay with HCC-2998 colon, 25.4 µM. The TGI with SNB-19 CNS is 41 µM; in the assay with OVCAR-4 ovarian it was 8.22 µM; with SK-MEL-2 melanoma it was 21.8 µM; in the assay with A549 NSCLC it was 20.7 µM.
Consider `Cn1cc(C2=C(c3cn(C)c4cc(Cl)ccc34)C(=O)NC2=O)c2ccccc21`, for which the GI50 in the assay on NCI/ADR-RES ovarian was 0.0761 µM; in the assay with LOX IMVI melanoma it was 0.198 µM; with K-562 leukemia, 0.089 µM; in the assay with SR leukemia, 0.073 µM; with TK-10 renal it was 3.81 µM; in the assay with HCC-2998 colon it was 0.203 µM. The GI50 with SNB-19 CNS was 0.145 µM; with OVCAR-4 ovarian, 0.362 µM; in the assay on SK-MEL-2 melanoma, 0.212 µM; in the assay with A549 NSCLC, 0.115 µM. Also, the TGI was over 25 µM in the assay on LOX IMVI melanoma; over 25 µM with K-562 leukemia; 6.38 µM with SR leukemia; over 25 µM in the assay on TK-10 renal; over 11.7 µM with HCC-2998 colon; over 25 µM in the assay with SNB-19 CNS. Besides, the TGI with OVCAR-4 ovarian, in the assay with SK-MEL-2 melanoma and with A549 NSCLC was over 25 µM each time.
`O=C(N/N=C\c1cc(Br)cc(Br)c1O)N/N=C/c1cc(Br)cc(Br)c1O`: the GI50 was 3.16 µM in the assay with NCI/ADR-RES ovarian; 2.57 µM in the assay with LOX IMVI melanoma; 0.7 µM in the assay on K-562 leukemia; 1.13 µM in the assay on SR leukemia; 10.6 µM in the assay on TK-10 renal; 13.4 µM with HCC-2998 colon. Moreover, the GI50 with SNB-19 CNS is 3.65 µM; with OVCAR-4 ovarian, 2.5 µM; in the assay on SK-MEL-2 melanoma, 11.2 µM; in the assay on A549 NSCLC it was 3.74 µM. The TGI worked out at 16 µM in the assay with NCI/ADR-RES ovarian; 12.1 µM in the assay with LOX IMVI melanoma; 14.3 µM in the assay with K-562 leukemia; 26.7 µM in the assay with SR leukemia; 26.2 µM in the assay with TK-10 renal; 32.5 µM in the assay on HCC-2998 colon. In addition, the TGI in the assay on SNB-19 CNS was determined as 17.7 µM; with OVCAR-4 ovarian, 12.9 µM; with SK-MEL-2 melanoma it was 24 µM; in the assay with A549 NSCLC, 14.6 µM.
With `C/C(=C\COc1ccc2ccc(=O)oc2c1)CCC(=O)C(C)(C)O`, the TGI was over 100 µM in the assay with NCI/ADR-RES ovarian; 32.8 µM in the assay with LOX IMVI melanoma; 46.8 µM with K-562 leukemia; 47.4 µM in the assay on SR leukemia; over 100 µM in the assay with TK-10 renal; 38.4 µM in the assay with HCC-2998 colon. Also, the TGI in the assay with SNB-19 CNS, in the assay on OVCAR-4 ovarian, in the assay with SK-MEL-2 melanoma and in the assay on A549 NSCLC was over 100 µM in each case.
